Test results published in PMC9376960, “Ruthenium(II)–Tris-pyrazolylmethane Complexes Inhibit Cancer Cell Growth by Disrupting Mitochondrial Calcium Homeostasis” (Journal of Medicinal Chemistry, 2022).

Key:
[1] = Solubility in water (D2O) by 1H NMR; assay type: physicochemical; settings: D2O, 21°C; sum of chloro and aquo complex after 2 h; 1H NMR, Me2SO2 standard
Protocol: A suspension of the selected ruthenium complex (3–5 mg) in a D2O solution (0.7 mL) containing Me2SO2 as the internal standard[115] (3.36 × 10^–3 M) was vigorously stirred at 21 °C for 2 h. The resulting saturated solution was filtered over celite, transferred into an NMR tube, and analyzed by ^1H NMR and ^31P NMR spectroscopy (delay time = 3 s; number of scans = 20). The concentration (solubility) was calculated by the relative integral (starting complex + aquo complex, C^βH signal in the ^1H spectrum) with respect to Me2SO2 (δ/ppm = 3.14). NMR data are given in the Supporting Information (Figures S36–S47).

[2] = Stability and chloride/water exchange in D2O (NMR); assay type: physicochemical; settings: for Aquo species % in D2O after 48h: 48 h at 37 °C; for residual complex % in D2O: after 48 h at 37 °C, sum of chloro and aquo complexes; for Aquo species % in D2O at t0: t0 = after 2 h stirring in D2O
Protocol: The same samples prepared at point (a) were used in this experiment, apart from complex 1 that was dissolved in DMSO-d6/D2O 4:1 v/v solution (0.7 mL; [Ru] = approx. […]) containing Me2SO2 as the standard.[115] After ^1H and ^31P{^1H} NMR analyses described above at point (a) (time = t0), samples were heated at 37 °C for 48 h. After cooling to room temperature, ^1H and ^31P NMR spectra were recorded. The percentage of starting complex + related aquo complex was calculated by the relative integral (C^βH signal in the ^1H spectrum) with respect to Me2SO2 (c = 3.3 × 10^–3 mol·L^–1; δ/ppm = 3.14 in D2O; δ/ppm = 2.95 in DMSO-d6/D2O 4:1 v/v), see Table 2 and S1.

[3] = Stability and speciation in deuterated cell culture medium (DMEM-d/DMSO-d6, NMR); assay type: physicochemical; settings: for Aquo species % in DMEM-d/DMSO-d6 after 24h: 37 °C; for residual complex % in DMEM-d/DMSO-d6: after 24 h at 37 °C, sum of chloro and aquo complexes
Protocol: Powdered DMEM cell culture medium (1000 mg/L glucose and L-glutamine, without sodium bicarbonate and phenol red; D2902; Sigma-Aldrich) was dissolved in D2O (10 mg/mL), according to the manufacturer’s instructions. The solution of deuterated cell culture medium (“DMEM-d”) was treated with Me2SO2 (6.6 × 10^–3 M) and NaH2PO4/Na2HPO4 (0.10 M, pD = 7.5)[120]−[122] and then stored at 4 °C under N2. The selected ruthenium compound (2–3 mg) was dissolved in DMSO-d6 (0.14 mL; 0.18 mL for 4) and then diluted with DMEM-d up to 0.75 mL total volume (cRu ca. 4 × 10^–3 M). The mixture was stirred for 30 min, then filtered over celite, and transferred into an NMR tube. The resulting yellow solution was analyzed by ^1H and ^31P NMR (delay time = 3 s; number of scans = 20) and then heated at 37 °C for 24 h. After cooling to room temperature, NMR analyses were repeated. Compound 1 was instead dissolved in a DMSO-d6/DMEM-d 4:1 v/v solution (0.7 mL; [Ru] = approx. 3 × 10^–3 M) containing Me2SO2 as the internal standard.[115] The percentage of the starting complex + related aquo complex was calculated by the relative integral with respect to Me2SO2 (δ/ppm = 3.16 in DMSO-d6/DMEM-d 1:4 and 1:3 v/v; δ/ppm = 2.95 in DMSO-d6/DMEM-d 4:1 v/v).

518A2 = experiment: MTT antiproliferative assay; assay type: cell-based, human; settings: 72 h, mean ± SD
Protocol: (§1) All of the cell lines were cultivated in DMEM medium (high glucose 4.5 g L^–1, PAA, Pasching, Austria) supplemented with gentamycin (50 μg mL^–1, Serva, Heidelberg, Germany) and 10% heat-inactivated fetal bovine serum (PAA). The medium for MRC5pd30 cells was further supplemented by 1% nonessential amino acids (Sigma-Aldrich, Prague, Czech Republic). All cells were cultured as adherent monolayers in a humidified incubator at 37 °C in a 5% CO2 atmosphere and subcultured twice a week with an appropriate plating density.
(§2) In vitro antiproliferative activity of Ru complexes was determined by the MTT or, alternatively, SRB assay as already described,[84] after 72 h of incubation of cells with various concentrations of the Ru complex. The reported IC50 values are an average of three independent experiments, each consisting of three replicates per concentration.

HCT116 [4] = experiment: MTT antiproliferative assay; assay type: cell-based, human; settings: 72 h, mean ± SD
Protocol: as §1, §2

HeLa = experiment: MTT antiproliferative assay; assay type: cell-based, human; settings: 72 h, mean ± SD
Protocol: as §1, §2

MCF-7 = experiment: MTT antiproliferative assay; assay type: cell-based, human; settings: 72 h, mean ± SD
Protocol: as §1, §2

RD = experiment: MTT antiproliferative assay; assay type: cell-based, human; settings: 72 h, mean ± SD
Protocol: as §1, with “density. In vitro antiproliferative activity of Ru complexes was determined by the MTT or, alternatively, SRB assay as already described,[84] after 72 h of incubation of cells with various concentrations of the Ru complex. The reported IC50 values are an average of three independent experiments, each consisting of three replicates per concentration.” for “density.”

MRC5pd30 = experiment: MTT assay on noncancerous cells; assay type: cell-based, human; settings: 72 h, mean ± SD
Protocol: as §1, §2

[5] = system: cancer cell lines (MCF-7, HeLa, 518A2, HCT116, RD) vs noncancerous MRC-5pd30; experiment: MTT panel: average IC50 of cancer cell lines and selectivity index; assay type: cell-based, human; settings: for SI (selectivity index): IC50 for noncancerous MRC-5pd30 vs the average IC50 value of cancer cell lines; for IC50: average of IC50 values related to cancer cell lines
Protocol: as §2

HCT116 [6] = experiment: SRB antiproliferative assay; assay type: cell-based, human; settings: SRB test, 72 h; mean ± SD
Protocol: as §2

HCT116 cells = experiment: Cellular uptake of Ru (ICP-MS); assay type: cell-based, human; settings: HCT116, 15 μM, 24 h; mean ± SEM
Protocol: In these experiments, 1 × 10^6 HCT116 cells were seeded on 100 mm Petri dishes. After overnight preincubation in a drug-free medium, the cells were treated with the Ru complexes (15 μM) for 24 h. Afterward, the cells were extensively washed with PBS (37 °C), detached using 0.25% trypsin, washed twice with ice-cold PBS, and counted by an automatic cell counter. The cell pellets were digested using a microwave acid (HCl) digestion system (CEM Mars). The quantity of Ru taken up by the cells was determined by inductively coupled plasma mass spectrometry (ICP-MS). All experiments were carried out in triplicate.

[7] = Octanol/water partition coefficient, shake-flask, UV-vis; assay type: physicochemical
Protocol: Partition coefficients (Pow); IUPAC: […] A stock solution of the selected ruthenium compound (ca. 2 mg) was prepared by first adding MeOH (50 μL, to help solubilization), followed by octanol-saturated water (2.5 mL). The solution was diluted with octanol-saturated water (ca. 1:3 v/v ratio, cRu ≈ 10^-4 M, so that 1.5 ≤ A ≤ 2.0 at λmax), and its UV-vis spectrum was recorded (Aaq^0). An aliquot of the solution (Vaq = 1.2 mL) was transferred into a test tube, and water-saturated octanol (Vorg = Vaq = 1.2 mL) was added. […] The UV-vis spectrum of the aqueous phase was recorded (Aaq^f), and the partition coefficient was calculated as Pow = ([…], where […] are the absorbances in the aqueous phase before and after partition with the organic phase, respectively.[118] For 1, an inverse procedure was followed, starting from a solution of the compound in water-saturated octanol. The partition coefficient was calculated as Pow = Aorg^f/(Aorg^0 - Aorg^f), where Aorg^0 and Aorg^f are the absorbances in the organic phase before and after partition with the aqueous phase, respectively. The wavelength of the maximum absorption of each compound (280-380 nm range) was used for UV-vis quantitation. The procedure was repeated three times for each sample (from the same stock solution); the results are given as mean ± standard deviation (Table 2).

Substance	solubility [1]	Aquo species % in D2O after 48h [2]	residual complex % in D2O [2]	Aquo species % in D2O at t0 [2]	Aquo species % in DMEM-d/DMSO-d6 at t0 ([3]; DMSO-d6-DMEM-d 1:4 v/v)	Aquo species % in DMEM-d/DMSO-d6 after 24h ([3]; DMSO-d6-DMEM-d 1:4 v/v)	residual complex % in DMEM-d/DMSO-d6 ([3]; DMSO-d6/DMEM-d 1:4 v/v)	IC50 (518A2)	IC50 (HCT116 [4])	IC50 (HeLa)	IC50 (MCF-7)	IC50 (RD)	IC50 (MRC5pd30)	SI (selectivity index) [5]	IC50 [5]	IC50 (HCT116 [6])	Accumulation of ruthenium, ng Ru/10^6 cells (HCT116 cells)	log Pow [7]	other results
[RuCl(κ^3-tpm)(PPh3){N(CH)3C(OH)CH}]Cl [compound 6]	1.9 10^–3 mol·L^–1	99%	100%	15%	9%	70%	100%	38 ± 8 µM	31 ± 2 µM	54 ± 14 µM	46 ± 7 µM	38 ± 6 µM	82 ± 4 µM	2.0	41.4 ± 7.4 µM	20 ± 2 µM	27.2 ± 1.1 ng Ru/10^6 cells		
[RuCl(κ^3-tpm)(PPh3){NCHNHC(CH)4C}]Cl [compound 4]	2.4 10^–3 mol·L^–1	70%	100%	67%				35 ± 4 µM	25 ± 2 µM	36 ± 1 µM	37 ± 7 µM	25 ± 3 µM	56.6 ± 0.7 µM	1.8	31.6 ± 3.4 µM	21 ± 3 µM	54.9 ± 1.3 ng Ru/10^6 cells	0.58 ± 0.06	Aquo species % in DMEM-d/DMSO-d6 at t0 ([3]; DMSO-d6-DMEM-d 1:3 v/v): 0%; Aquo species % in DMEM-d/DMSO-d6 after 24h ([3]; DMSO-d6-DMEM-d 1:3 v/v): 59%; residual complex % in DMEM-d/DMSO-d6 ([3]; DMSO-d6/DMEM-d 1:3 v/v): 93%
[RuCl(κ^3-tpm)(PPh3)(NCMe)]Cl [compound 2]	4.5 10^–3 mol·L^–1	92%	89%	80%	0%	59%	51%	26 ± 4 µM	25 ± 2 µM	53 ± 4 µM	32 ± 4 µM	26 ± 5 µM	76 ± 1 µM	2.4	32.4 ± 3.8 µM	16 ± 1 µM	29.6 ± 2.9 ng Ru/10^6 cells	–0.33 ± 0.07	
